# Experimental data taken from ChEMBL document CHEMBL3132776, “Synthesis of amphiphilic, chalcogen-based redox modulators with in vitro cytotoxic activity against cancer cells, macrophages and microbes” (Medchemcomm, 2014).
# Activity calls are given as the source filed them. The rule behind the calls is not given here.
# Test system: Escherichia coli
# Experiment: Antibacterial activity against Escherichia coli M17 VKPM-B8208 by agar plate assay
# Assay type: functional, organism-based
# Conditions: not given
row,SMILES,IC50 [µM]
1,O=S(=O)([O-])OCCCCCCCC[Te]c1ccccc1.[Na+],550

# Test system: Erythrocyte
# Experiment: Induction of membrane permeabilization assessed as hemolysis in RBC (unknown origin) by spectrophotometry based hemoglobin release assay
# Assay type: functional, cell-based
# Conditions: not given
row,SMILES,Activity
1,O=S(=O)([O-])OCCCCCCCCCC[Te]c1ccccc1.[Na+],Dose-dependent effect
2,O=S(=O)([O-])OCCCCCCCC[Se]c1ccccc1.[Na+],Dose-dependent effect
3,O=S(=O)([O-])OCCCCCCCCCC[Se]c1ccccc1.[Na+],Dose-dependent effect
4,O=S(=O)([O-])OCCCCCCCCCCC[Te]c1ccccc1.[Na+],Dose-dependent effect
5,O=S(=O)([O-])OCCCCCCCCCCCC[Se]c1ccccc1.[Na+],Dose-dependent effect
6,O=S(=O)([O-])OCCCCCCCCC[Te]c1ccccc1.[Na+],Dose-dependent effect
7,O=S(=O)([O-])OCCCCCCCCC[Se]c1ccccc1.[Na+],Dose-dependent effect
8,CCCCCCCCCCCCOS(=O)(=O)[O-].[Na+] [SODIUM LAURYL SULFATE],Dose-dependent effect
9,O=S(=O)([O-])OCCCCCCCCCCCC[Te]c1ccccc1.[Na+],Dose-dependent effect
10,O=S(=O)([O-])OCCCCCCCC[Te]c1ccccc1.[Na+],Dose-dependent effect
11,O=S(=O)([O-])OCCCCCCCCCCC[Se]c1ccccc1.[Na+],Dose-dependent effect

# Test system: RAW264.7
# Experiment: Cytotoxicity against mouse RAW264.7 cells assessed as reduction in cell viability after 24 hrs by MTT assay
# Assay type: functional, cell-based
# Conditions: RAW264.7, 24 h
row,SMILES,IC50 [µM]
1,O=S(=O)([O-])OCCCCCCCCCC[Te]c1ccccc1.[Na+],5.32
2,O=S(=O)([O-])OCCCCCCCC[Se]c1ccccc1.[Na+],> 100
3,O=S(=O)([O-])OCCCCCCCCCC[Se]c1ccccc1.[Na+],> 100
4,O=S(=O)([O-])OCCCCCCCCCCC[Te]c1ccccc1.[Na+],7.84
5,O=S(=O)([O-])OCCCCCCCCCCCC[Se]c1ccccc1.[Na+],> 100
6,O=S(=O)([O-])OCCCCCCCCC[Te]c1ccccc1.[Na+],4.67
7,O=S(=O)([O-])OCCCCCCCCC[Se]c1ccccc1.[Na+],> 100
8,CCCCCCCCCCCCOS(=O)(=O)[O-].[Na+] [SODIUM LAURYL SULFATE],> 100
9,O=S(=O)([O-])OCCCCCCCCCCCC[Te]c1ccccc1.[Na+],4.96
10,O=S(=O)([O-])OCCCCCCCC[Te]c1ccccc1.[Na+],3.95
11,O=S(=O)([O-])OCCCCCCCCCCC[Se]c1ccccc1.[Na+],> 100

# Test system: HCT-116
# Experiment: Induction of superoxide anion radicals generation in human p53-positive HCT116 cells at 50 microM within 40 mins by DHE staining based fluorescence assay
# Assay type: functional, cell-based
# Conditions: not given
row,SMILES,Activity
1,O=S(=O)([O-])OCCCCCCCC[Te]c1ccccc1.[Na+],Active

# Test system: Steinernema feltiae
# Experiment: Nematicidal activity against Steinernema feltiae assessed as reduction in viability after 24 hrs
# Assay type: functional
# Conditions: read-out: LD50 (the source's name)
row,SMILES,LC50 [µM]
1,O=S(=O)([O-])OCCCCCCCC[Se]c1ccccc1.[Na+],30
2,CCCCCCCCCCCCOS(=O)(=O)[O-].[Na+] [SODIUM LAURYL SULFATE],> 400
3,O=S(=O)([O-])OCCCCCCCC[Te]c1ccccc1.[Na+],78

# Biological target: Hemoglobin HbA (Homo sapiens) (UniProt P69905+P68871)
# Sequence (P68871 2-147 partner limits assumed): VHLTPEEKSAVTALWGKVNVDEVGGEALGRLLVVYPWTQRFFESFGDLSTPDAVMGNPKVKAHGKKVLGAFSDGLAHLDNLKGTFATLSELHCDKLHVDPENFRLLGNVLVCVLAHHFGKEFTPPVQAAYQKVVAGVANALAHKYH
# Sequence (P69905 2-142 limits assumed): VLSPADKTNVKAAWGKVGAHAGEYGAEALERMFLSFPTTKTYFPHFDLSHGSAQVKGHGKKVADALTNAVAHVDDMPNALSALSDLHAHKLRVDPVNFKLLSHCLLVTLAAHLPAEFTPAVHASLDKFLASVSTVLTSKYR
# Experiment: Binding affinity to Hemoglobin (unknown origin) at 10 mM by circular dichroism spectroscopy
# Conditions: not given
row,SMILES,Activity
1,O=S(=O)([O-])OCCCCCCCC[Se]c1ccccc1.[Na+],Active
2,O=S(=O)([O-])OCCCCCCCC[Te]c1ccccc1.[Na+],Active

# Test system: HCT-116
# Experiment: Drug uptake in human p53-positive HCT116 cells after 48 hrs by energy-dispersive X-ray spectroscopy
# Assay type: ADME, cell-based
# Conditions: hct-116, 48 h
row,SMILES,Drug uptake
1,O=S(=O)([O-])OCCCCCCCC[Te]c1ccccc1.[Na+],Active

# Test system: Erythrocyte
# Experiment: Induction of membrane permeabilization assessed as hemolysis in RBC (unknown origin) at 100 microM by spectrophotometry based hemoglobin release assay
# Assay type: functional
# Conditions: not given
row,SMILES,Activity [%]
1,O=S(=O)([O-])OCCCCCCCCCC[Te]c1ccccc1.[Na+],45.35
2,O=S(=O)([O-])OCCCCCCCC[Se]c1ccccc1.[Na+],1.24
3,O=S(=O)([O-])OCCCCCCCCCC[Se]c1ccccc1.[Na+],7.94
4,O=S(=O)([O-])OCCCCCCCCCCC[Te]c1ccccc1.[Na+],53.35
5,O=S(=O)([O-])OCCCCCCCCCCCC[Se]c1ccccc1.[Na+],66.8
6,O=S(=O)([O-])OCCCCCCCCC[Te]c1ccccc1.[Na+],20.44
7,O=S(=O)([O-])OCCCCCCCCC[Se]c1ccccc1.[Na+],2.73
8,CCCCCCCCCCCCOS(=O)(=O)[O-].[Na+] [SODIUM LAURYL SULFATE],9.51
9,O=S(=O)([O-])OCCCCCCCCCCCC[Te]c1ccccc1.[Na+],67.61
10,O=S(=O)([O-])OCCCCCCCC[Te]c1ccccc1.[Na+],3.09
11,O=S(=O)([O-])OCCCCCCCCCCC[Se]c1ccccc1.[Na+],63.41

# Test system: HCT-116
# Experiment: Cytotoxicity against human p53-positive HCT116 cells assessed as reduction in cell viability after 24 hrs by MTT assay
# Assay type: functional, cell-based
# Conditions: HCT-116, 24 h
row,SMILES,IC50 [µM]
1,O=S(=O)([O-])OCCCCCCCCCC[Te]c1ccccc1.[Na+],7.47
2,O=S(=O)([O-])OCCCCCCCC[Se]c1ccccc1.[Na+],> 100
3,O=S(=O)([O-])OCCCCCCCCCC[Se]c1ccccc1.[Na+],> 100
4,O=S(=O)([O-])OCCCCCCCCCCC[Te]c1ccccc1.[Na+],9.73
5,O=S(=O)([O-])OCCCCCCCCCCCC[Se]c1ccccc1.[Na+],> 100
6,O=S(=O)([O-])OCCCCCCCCC[Te]c1ccccc1.[Na+],4.99
7,O=S(=O)([O-])OCCCCCCCCC[Se]c1ccccc1.[Na+],> 100
8,CCCCCCCCCCCCOS(=O)(=O)[O-].[Na+] [SODIUM LAURYL SULFATE],> 100
9,O=S(=O)([O-])OCCCCCCCCCCCC[Te]c1ccccc1.[Na+],19.8
10,O=S(=O)([O-])OCCCCCCCC[Te]c1ccccc1.[Na+],5.99
11,O=S(=O)([O-])OCCCCCCCCCCC[Se]c1ccccc1.[Na+],> 100

# Test system: HCT-116
# Experiment: Induction of superoxide anion radicals generation in human p53-positive HCT116 cells by DHE staining based fluorescence assay
# Assay type: functional, cell-based
# Conditions: not given
row,SMILES,Activity
1,O=S(=O)([O-])OCCCCCCCC[Se]c1ccccc1.[Na+],inactive

# Test system: not listed separately
# Experiment: Critical micelle concentration of the compound by KRUSS tensiometry
# Assay type: physicochemical
# Conditions: not given
row,SMILES,CMC [mM]
1,O=S(=O)([O-])OCCCCCCCCCC[Te]c1ccccc1.[Na+],0.9
2,O=S(=O)([O-])OCCCCCCCC[Se]c1ccccc1.[Na+],2.6
3,O=S(=O)([O-])OCCCCCCCCCC[Se]c1ccccc1.[Na+],1.2
4,O=S(=O)([O-])OCCCCCCCCCCC[Te]c1ccccc1.[Na+],0.5
5,O=S(=O)([O-])OCCCCCCCCCCCC[Se]c1ccccc1.[Na+],0.7
6,O=S(=O)([O-])OCCCCCCCCC[Te]c1ccccc1.[Na+],4.8
7,O=S(=O)([O-])OCCCCCCCCC[Se]c1ccccc1.[Na+],2.5
8,CCCCCCCCCCCCOS(=O)(=O)[O-].[Na+] [SODIUM LAURYL SULFATE],0.9
9,O=S(=O)([O-])OCCCCCCCCCCCC[Te]c1ccccc1.[Na+],0.3
10,O=S(=O)([O-])OCCCCCCCC[Te]c1ccccc1.[Na+],5
11,O=S(=O)([O-])OCCCCCCCCCCC[Se]c1ccccc1.[Na+],1.1

# Test system: HCT-116
# Experiment: Reduction in mitochondrial membrane potential in human p53-positive HCT116 cells by JC-1 dye based fluorescence assay
# Assay type: functional, cell-based
# Conditions: not given
row,SMILES,Activity
1,O=S(=O)([O-])OCCCCCCCC[Se]c1ccccc1.[Na+],inactive

# Test system: not listed separately
# Experiment: Cytotoxicity against human ARPE19 cells assessed as reduction in cell viability after 24 hrs by MTT assay
# Assay type: cell-based
# Conditions: ARPE-19, 24 h
row,SMILES,IC50 [µM]
1,O=S(=O)([O-])OCCCCCCCCCC[Te]c1ccccc1.[Na+],50
2,O=S(=O)([O-])OCCCCCCCCCCC[Te]c1ccccc1.[Na+],50
3,O=S(=O)([O-])OCCCCCCCCC[Te]c1ccccc1.[Na+],50
4,O=S(=O)([O-])OCCCCCCCCCCCC[Te]c1ccccc1.[Na+],50
5,O=S(=O)([O-])OCCCCCCCC[Te]c1ccccc1.[Na+],50
